Converted amounts (≈) assume the structure as drawn. Numbered stars: 1 amine (or outer) side, 2 acyl side, 3 side chain; on linkers, the order of the positions; unused ones are H or OH. Square brackets hold non-standard residues; d marks the D form. Peptide text beside a SMILES is read from it. ξ: configuration not given here. X6 = N=C1NCC(CC(N[*:1])C(=O)[*:2])N1C1OC(CO)C(O)C(O)C1O; Tyr(3-NO2) = N[CH](Cc1ccc(O)c([N+](=O)[O-])c1)C(=O)O; X7 = N=C1NCC(CC(N[*:1])C(=O)[*:2])N1; ξPhe(βξ-Me) = CC(c1ccccc1)C(N)C(=O)O
Columns and labels:
Assay in all cases: In vitro antibacterial evaluation: minimum inhibitory concentration (MIC), broth dilution method
Format in all cases: cell-based
Escherichia coli = conditions: broth dilution, 18 hours at 35° C.
Enterococcus sp. = conditions: broth dilution, 18 hours at 35° C.
Method in brief: (§1)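 Following NCCLS approved standard M7-A2, compounds are serially diluted from 64 to 0.06 μg/mL in Muller-Hinton II […] and inoculated at 5×10^5 CFU/mL; the MIC is the minimum concentration at which growth is inhibited.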

Streptococcus sp. = conditions: broth dilution, 18 hours at 35° C.
Method in brief: as §1

Staphylococcus sp. = conditions: strain SMITH GC 4543; broth dilution, 18 hours at 35° C.
Method in brief: as §1

[1] = Enterococcus faecalis (GC 4553)
[2] = Streptococcus agalactiae (GC 4564)
[3] = Streptococcus pneumoniae (GC 1894)
[4] = Streptococcus pyogenes (GC 4563)

| SMILES | MIC Escherichia coli (ATCC 25922) (Escherichia coli) [µg/mL] | MIC Escherichia coli (GC 4559) (Escherichia coli) [µg/mL] | MIC Escherichia coli (GC 4560) (Escherichia coli) [µg/mL] | MIC Enterococcus avium (GC 4558) (Enterococcus sp.) [µg/mL] | MIC Enterococcus faecalis (ATCC 29212) (Enterococcus sp.) [µg/mL] | MIC Enterococcus faecalis (GC 2242) (Enterococcus sp.) [µg/mL] | MIC Enterococcus faecalis (GC 2691) (Enterococcus sp.) [µg/mL] | MIC Enterococcus faecalis (GC 3059) (Enterococcus sp.) [µg/mL] | MIC Enterococcus faecalis (GC 4552) (Enterococcus sp.) [µg/mL] | MIC Enterococcus faecalis (GC 4553) (Enterococcus sp.) [µg/mL] | MIC Enterococcus faecalis (GC 4554) (Enterococcus sp.) [µg/mL] | MIC Enterococcus faecalis (GC 6189) (Enterococcus sp.) [µg/mL] | MIC Enterococcus faecium (GC 2243) (Enterococcus sp.) [µg/mL] | MIC Enterococcus faecium (GC 4556) (Enterococcus sp.) [µg/mL] | MIC Enterococcus faecium (GC 4557) (Enterococcus sp.) [µg/mL] | MIC Streptococcus agalactiae (GC 4564) (Streptococcus sp.) [µg/mL] | MIC Streptococcus pneumoniae (GC 1894) (Streptococcus sp.) [µg/mL] | MIC Streptococcus pyogenes (GC 4563) (Streptococcus sp.) [µg/mL] | MIC Enterococcus faecium (GC 4557) (Enterococcus sp.; Enterococcus faecium (GC 4557)) [µg/mL] | MIC Streptococcus pneumoniae (GC 1894) (Streptococcus sp.; [3]) [µg/mL] | other results |
| --- | --- | --- | --- | --- | --- | --- | --- | --- | --- | --- | --- | --- | --- | --- | --- | --- | --- | --- | --- | --- | --- |
| CC(c1ccccc1)C1NC(=O)CNC(=O)C(CO)NC(=O)C(CC2CNC(=N)N2C2OC(CO)C(O)C(O)C2O)NC(=O)C(CC2CNC(=N)N2)NC(=O)C(Cc2ccc(O)c([N+](=O)[O-])c2)NC1=O (stereo not drawn) [Example 10, Cyclo[3-(2-iminoimidazolidin-4-yl)alanyl-3-(3-hexopyranosyl-2-iminoimidazolidin-4-yl)-alanylserylglycyl-β-methylphenylalanyl-3-nitrotyrosyl]] (cyclo(G[ξPhe(βξ-Me)][Tyr(3-NO2)][X7][X6]S); configuration not given here) | >64 | >64 | >64 | >64 | >64 | >64 | >64 | >64 | >64 | >64 | >64 | >64 | >64 | >64 | >64 | >64 | >64 | >64 |  |  | MIC Streptococcus pneumoniae (ATCC 6301) (Streptococcus sp.): >64 µg/mL; MIC Streptococcus pneumoniae (GC 4565) (Streptococcus sp.): >64 µg/mL |
| CC(=O)Nc1cc(CC2NC(=O)C(C(C)c3ccccc3)NC(=O)CNC(=O)C(CO)NC(=O)C(C(O)C3CNC(=N)N3C3OC(CO)C(O)C(O)C3O)NC(=O)C(C(O)C3CNC(=N)N3)NC2=O)ccc1O (stereo not drawn) [Example 13, Cyclo[glycyl-β-methylphenylalanyl-3-acetamidotyrosyl-3-(2-iminoimidazolidin-4-yl)seryl-3-(3-hexopyranosyl-2-iminoimidazolidin-4-yl)serylseryl]] | >64 | >64 | 32 (≈ 31.1 µM) | 64 (≈ 62.3 µM) | >64 | 64 (≈ 62.3 µM) | >64 | >64 | >64 | 64 (≈ 62.3 µM) | >64 | >64 | 64 (≈ 62.3 µM) | 64 (≈ 62.3 µM) | 64 (≈ 62.3 µM) | 16 (≈ 15.6 µM) | 2 (≈ 1.95 µM) | 8 (≈ 7.78 µM) | 64 (≈ 62.3 µM) | 2 (≈ 1.95 µM) | MIC Enterococcus avium (GC 4558) (Enterococcus sp.; Enterococcus avium (GC 4558)): 64 µg/mL (≈ 62.3 µM); MIC Enterococcus faecalis (ATCC 29212) (Enterococcus sp.; Enterococcus faecalis (ATCC 29212)): >64 µg/mL; MIC Enterococcus faecalis (GC 2242) (Enterococcus sp.; Enterococcus faecalis (GC 2242)): 64 µg/mL (≈ 62.3 µM); MIC Enterococcus faecalis (GC 2691) (Enterococcus sp.; Enterococcus faecalis (GC 2691)): >64 µg/mL; MIC Enterococcus faecalis (GC 3059) (Enterococcus sp.; Enterococcus faecalis (GC 3059)): >64 µg/mL; MIC Enterococcus faecalis (GC 4552) (Enterococcus sp.; Enterococcus faecalis (GC 4552)): >64 µg/mL; MIC Enterococcus faecalis (GC 4553) (Enterococcus sp.; [1]): 64 µg/mL (≈ 62.3 µM); MIC Enterococcus faecalis (GC 4554) (Enterococcus sp.; Enterococcus faecalis (GC 4554)): >64 µg/mL; MIC Enterococcus faecalis (GC 6189) (Enterococcus sp.; Enterococcus faecalis (GC 6189)): >64 µg/mL; MIC Enterococcus faecium (GC 2243) (Enterococcus sp.; Enterococcus faecium (GC 2243)): 64 µg/mL (≈ 62.3 µM); MIC Enterococcus faecium (GC 4556) (Enterococcus sp.; Enterococcus faecium (GC 4556)): 64 µg/mL (≈ 62.3 µM); MIC Staphylococcus aureus-SMITH (GC 4543) (Staphylococcus sp.): 64 µg/mL (≈ 62.3 µM); MIC Streptococcus agalactiae (GC 4564) (Streptococcus sp.; [2]): 16 µg/mL (≈ 15.6 µM); MIC Streptococcus pneumoniae (ATCC 6301) (Streptococcus sp.; Streptococcus pneumoniae (ATCC 6301)): 4 µg/mL (≈ 3.89 µM); MIC Streptococcus pneumoniae (GC 4565) (Streptococcus sp.; Streptococcus pneumoniae (GC 4565)): 4 µg/mL (≈ 3.89 µM); MIC Streptococcus pyogenes (GC 4563) (Streptococcus sp.; [4]): 8 µg/mL (≈ 7.78 µM); MIC Streptococcus pneumoniae (ATCC 6301) (Streptococcus sp.): 4 µg/mL (≈ 3.89 µM); MIC Streptococcus pneumoniae (GC 4565) (Streptococcus sp.): 4 µg/mL (≈ 3.89 µM) |
| CCCCCCC(=O)Nc1cc(CC2NC(=O)C(C(C)c3ccccc3)NC(=O)CNC(=O)C(CO)NC(=O)C(C(O)C3CNC(=N)N3C3OC(CO)C(O)C(O)C3O)NC(=O)C(C(O)C3CNC(=N)N3)NC2=O)ccc1O (stereo not drawn) [Example 16, Cyclo[glycyl-β-methylphenylalanyl-3-(heptanamido)tyrosyl-3-(2-iminoimidazolidin-4-yl)seryl-3-(3-hexopyranosyl-2-iminoimidazolidin-4-yl)serylseryl]] | 32 (≈ 29.1 µM) | 32 (≈ 29.1 µM) | 8 (≈ 7.28 µM) |  |  |  |  |  |  | 64 (≈ 58.3 µM) |  |  |  |  | 16 (≈ 14.6 µM) | 64 (≈ 58.3 µM) | 64 (≈ 58.3 µM) | 16 (≈ 14.6 µM) | 16 (≈ 14.6 µM) | 64 (≈ 58.3 µM) | MIC Enterococcus faecalis (GC 4553) (Enterococcus sp.; [1]): 64 µg/mL (≈ 58.3 µM); MIC Staphylococcus aureus-SMITH (GC 4543) (Staphylococcus sp.): 64 µg/mL (≈ 58.3 µM); MIC Streptococcus agalactiae (GC 4564) (Streptococcus sp.; [2]): 64 µg/mL (≈ 58.3 µM); MIC Streptococcus pyogenes (GC 4563) (Streptococcus sp.; [4]): 16 µg/mL (≈ 14.6 µM) |
| CC(c1ccccc1)C1NC(=O)CNC(=O)C(CO)NC(=O)C(C(O)C2CNC(=N)N2C2OC(CO)C(O)C(O)C2O)NC(=O)C(C(O)C2CNC(=N)N2)NC(=O)C(Cc2ccc(O)c(NC=O)c2)NC1=O (stereo not drawn) [Example 18, Cyclo[glycyl-β-methylphenylalanyl-3-formamidotyrosyl-3-(2-iminoimidazolidin-4-yl)seryl-3-(3-hexopyranosyl-2-iminoimidazolidin-4-yl)serylseryl]] | 64 (≈ 63.1 µM) | 32 (≈ 31.6 µM) | 16 (≈ 15.8 µM) |  |  |  |  |  |  |  |  |  |  |  | 64 (≈ 63.1 µM) |  | 64 (≈ 63.1 µM) |  | 64 (≈ 63.1 µM) | 64 (≈ 63.1 µM) |  |
